Measurements from ChEMBL document CHEMBL6109159, “Discovery of a Potent and Selective Protein Arginine Methyltransferase 5 (PRMT5) PROTAC Degrader” (J Med Chem, 2025).
Activity calls are given as the source filed them. No cut-off for these calls is given here.

What was measured:
[1] = biological target: T1, von Hippel-Lindau disease tumor suppressor/Protein arginine N-methyltransferase 5 (Homo sapiens, UniProt O14744+P40337); assay: PROTAC activity at PRMT5/VHL in human MDA-MB-468 cells assessed as degradation measured at 5 uM after 72 hrs by Western blot analysis; format: cell-based
T1 sequence (O14744 whole entry, looked up): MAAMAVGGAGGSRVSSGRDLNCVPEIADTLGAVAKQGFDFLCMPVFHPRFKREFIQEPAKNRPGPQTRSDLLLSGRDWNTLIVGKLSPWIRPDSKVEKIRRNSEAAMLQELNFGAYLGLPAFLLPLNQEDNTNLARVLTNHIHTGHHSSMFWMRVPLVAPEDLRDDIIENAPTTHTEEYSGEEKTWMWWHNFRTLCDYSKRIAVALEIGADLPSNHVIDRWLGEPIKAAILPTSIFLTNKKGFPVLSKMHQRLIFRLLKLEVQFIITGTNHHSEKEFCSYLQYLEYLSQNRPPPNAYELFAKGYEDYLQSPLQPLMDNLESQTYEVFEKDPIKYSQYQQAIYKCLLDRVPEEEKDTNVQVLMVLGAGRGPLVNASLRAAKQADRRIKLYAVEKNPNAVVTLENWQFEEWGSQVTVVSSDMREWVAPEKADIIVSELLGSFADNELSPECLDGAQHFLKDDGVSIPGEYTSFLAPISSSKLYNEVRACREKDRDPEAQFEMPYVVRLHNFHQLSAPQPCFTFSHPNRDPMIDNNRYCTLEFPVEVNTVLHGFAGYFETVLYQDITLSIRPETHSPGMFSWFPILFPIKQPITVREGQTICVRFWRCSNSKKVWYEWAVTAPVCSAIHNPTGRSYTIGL
T1 sequence (P40337 whole entry, looked up): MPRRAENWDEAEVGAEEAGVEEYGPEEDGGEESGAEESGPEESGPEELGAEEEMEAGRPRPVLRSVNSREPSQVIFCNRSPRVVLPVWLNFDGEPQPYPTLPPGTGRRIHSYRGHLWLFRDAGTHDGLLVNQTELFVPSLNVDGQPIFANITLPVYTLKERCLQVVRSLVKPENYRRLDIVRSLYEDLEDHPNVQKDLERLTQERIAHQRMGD

MDA-MB-468 [2] = assay: Cytotoxicity against human MDA-MB-468 cells assessed as cell viability measured after 7 days by CCK-8 assay; format: functional; details: MDA-MB-468, 168 h, time 7 day
[3] = biological target: T2, von Hippel-Lindau disease tumor suppressor/Methylosome protein WDR77 (Homo sapiens, UniProt Q9BQA1+P40337); assay: PROTAC activity at MEP50/VHL in human MDA-MB-468 cells assessed as degradation measured at 0.5 uM after 72 hrs by Western blot analysis; format: cell-based
T2 sequence (P40337 whole entry, looked up): as above
T2 sequence (Q9BQA1 whole entry, looked up): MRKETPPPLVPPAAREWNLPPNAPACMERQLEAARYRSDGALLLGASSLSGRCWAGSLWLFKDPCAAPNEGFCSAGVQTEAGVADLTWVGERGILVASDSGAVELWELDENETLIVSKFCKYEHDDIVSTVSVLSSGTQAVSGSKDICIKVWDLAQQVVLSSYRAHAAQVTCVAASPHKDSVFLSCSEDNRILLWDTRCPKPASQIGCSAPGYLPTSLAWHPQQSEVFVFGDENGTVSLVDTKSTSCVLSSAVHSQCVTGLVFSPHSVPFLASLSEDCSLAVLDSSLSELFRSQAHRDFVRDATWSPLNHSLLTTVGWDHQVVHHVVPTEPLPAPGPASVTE

MDA-MB-468 [4] = assay: Inhibition of sDMA (symmetric dimethylarginine) level in human MDA-MB-468 cells at 5 uM measured after 72 hrs by Western blot analysis; format: functional, cell-based
MDA-MB-468 [5] = assay: Inhibition of sDMA (symmetric dimethylarginine) level in human MDA-MB-468 cells at 2 uM measured after 7 days by Western blot analysis; format: functional, cell-based; details: time 7.0 day
MDA-MB-468 [6] = assay: Inhibition of sDMA (symmetric dimethylarginine) level in human MDA-MB-468 cells at 0.5 uM measured after 72 hrs by Western blot analysis; format: functional, cell-based
[7] = biological target: T1, von Hippel-Lindau disease tumor suppressor/Protein arginine N-methyltransferase 5; assay: PROTAC activity at PRMT5/VHL in human MDA-MB-468 cells assessed as degradation measured at 0.5 uM after 72 hrs by Western blot analysis; format: cell-based
[8] = biological target: T2, von Hippel-Lindau disease tumor suppressor/Methylosome protein WDR77; assay: PROTAC activity at MEP50/VHL in human MDA-MB-468 cells assessed as degradation measured at 5 uM after 72 hrs by Western blot analysis; format: cell-based
[9] = PROTAC activity at PRMT5/VHL in human PNT2 cells assessed as degradation at 0.5 to 5 uM after 3 days by Western blot analysis; details: dose 0.5-5 µM, time 3.0 day
[10] = biological target: T2, von Hippel-Lindau disease tumor suppressor/Methylosome protein WDR77; assay: PROTAC activity at MEP50/VHL in human PNT2 cells assessed as degradation at 0.5 to 5 uM after 3 days by Western blot analysis; format: cell-based; details: dose 0.5-5 µM, time 3.0 day
[11] = biological target: T2, von Hippel-Lindau disease tumor suppressor/Methylosome protein WDR77; assay: PROTAC activity at MEP50/VHL in human MDA-MB-468 cells assessed as degradation measured at 0.5 to 5 uM after 24 hrs by Western blot analysis; format: cell-based; details: dose 0.5-5 µM
MCF-10A [12] = assay: Cytotoxicity against human MCF10A cells assessed as cell viability up to 15 uM measured after 5 days by CCK-8 assay; format: toxicity, cell-based; details: 120 h, time 5 day
MCF-10A [13] = assay: PROTAC activity at MEP50/VHL in human MCF-10A cells assessed as degradation at 0.5 to 5 uM after 3 days by Western blot analysis; format: cell-based; details: dose 0.5-5 µM, time 3.0 day
[14] = biological target: T1, von Hippel-Lindau disease tumor suppressor/Protein arginine N-methyltransferase 5; assay: PROTAC activity at PRMT5/VHL in human MCF-10A cells assessed as degradation at 0.5 to 5 uM after 3 days by Western blot analysis; format: cell-based; details: dose 0.5-5 µM, time 3.0 day
[15] = biological target: T1, von Hippel-Lindau disease tumor suppressor/Protein arginine N-methyltransferase 5; assay: PROTAC activity at PRMT5/VHL in human MDA-MB-468 cells assessed as degradation measured at 0.5 to 5 uM after 24 hrs by Western blot analysis; format: cell-based; details: dose 0.5-5 µM

Activity [1]	Activity [3]	Activity [7]	Activity [8]	Activity [9] [%]	Activity [10] [%]	Activity [11]	Activity [14] [%]	Activity [15]	SMILES	GI50 (MDA-MB-468 [2]) [nM]	inhibition (MDA-MB-468 [4])	inhibition (MDA-MB-468 [5])	inhibition (MDA-MB-468 [6])	Activity (MCF-10A [12])	Activity (MCF-10A [13]) [%]
inactive	inactive	inactive	inactive	–	–	–	–	–	O=C(NC[C@H](O)CN1CCc2ccccc2C1)c1cc(NC2COC2)ncn1	230	Active	Active; Compound Inhibited Greater Extent Than Ms4322	Active	–	–
–	–	–	–	50	50	inactive	50	inactive	O=C1CCC(N2C(=O)c3ccc(NCCCCCCCCCC(=O)N4CCC(Nc5cc(C(=O)NC[C@H](O)CN6CCc7ccccc7C6)ncn5)CC4)cc3C2=O)C(=O)N1 (stereo not given in full)	–	–	–	–	Toxic	50
